Paper PMC6199744, “Development of Chemical Proteomics for the Folateome and Analysis of the Kinetoplastid Folateome” (ACS Infectious Diseases, 2018)
Read-outs that look alike come from different tables or passages of the source.

Experiments:
Format in all cases: binding
[1] = target: T1, HeLa cell extract proteins (Homo sapiens, UniProt P05455)
T1 construct: endogenous in cells; host or cells: HeLa cell extract
T1 sequence (P05455 1-408): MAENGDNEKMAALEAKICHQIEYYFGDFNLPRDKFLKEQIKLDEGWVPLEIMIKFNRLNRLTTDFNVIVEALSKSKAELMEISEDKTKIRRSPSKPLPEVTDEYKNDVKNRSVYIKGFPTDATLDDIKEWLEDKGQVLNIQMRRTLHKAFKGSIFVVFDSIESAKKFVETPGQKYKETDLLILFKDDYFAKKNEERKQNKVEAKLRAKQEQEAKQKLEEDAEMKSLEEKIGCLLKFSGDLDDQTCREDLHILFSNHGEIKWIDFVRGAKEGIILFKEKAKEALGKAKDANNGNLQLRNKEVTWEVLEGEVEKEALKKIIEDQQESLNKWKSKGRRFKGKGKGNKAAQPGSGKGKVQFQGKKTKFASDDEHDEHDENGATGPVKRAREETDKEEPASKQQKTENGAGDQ

[2] = target: T2, HeLa cell extract proteins (Homo sapiens, UniProt P35080)
T2 construct: endogenous in cells; host or cells: HeLa cell extract
T2 sequence (P35080 1-140): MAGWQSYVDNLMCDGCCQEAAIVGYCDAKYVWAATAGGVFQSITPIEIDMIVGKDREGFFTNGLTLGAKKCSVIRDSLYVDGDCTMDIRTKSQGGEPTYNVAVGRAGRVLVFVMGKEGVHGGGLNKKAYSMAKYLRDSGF

[3] = target: T3, HeLa cell extract proteins (Homo sapiens, UniProt Q07021)
T3 construct: endogenous in cells; host or cells: HeLa cell extract
T3 sequence (Q07021 74-282): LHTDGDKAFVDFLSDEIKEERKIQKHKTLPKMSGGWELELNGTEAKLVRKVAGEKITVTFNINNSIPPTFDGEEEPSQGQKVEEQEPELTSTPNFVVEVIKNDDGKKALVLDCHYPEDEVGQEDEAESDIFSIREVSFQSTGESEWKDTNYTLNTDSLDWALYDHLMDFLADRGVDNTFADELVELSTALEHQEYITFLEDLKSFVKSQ

[4] = target: T4, HeLa cell extract proteins (Homo sapiens, UniProt Q13155)
T4 construct: endogenous in cells; host or cells: HeLa cell extract
T4 sequence (Q13155 1-320): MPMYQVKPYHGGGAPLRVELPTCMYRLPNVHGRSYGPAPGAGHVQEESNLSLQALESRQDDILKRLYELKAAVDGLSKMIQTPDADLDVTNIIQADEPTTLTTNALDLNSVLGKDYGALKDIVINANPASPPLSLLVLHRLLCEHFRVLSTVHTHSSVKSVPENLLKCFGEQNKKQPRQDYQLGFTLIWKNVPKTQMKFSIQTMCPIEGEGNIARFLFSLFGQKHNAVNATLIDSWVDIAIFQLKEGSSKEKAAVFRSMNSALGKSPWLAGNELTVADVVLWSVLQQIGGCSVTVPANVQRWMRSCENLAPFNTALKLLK

[5] = target: T5, HeLa cell extract proteins (Homo sapiens, UniProt Q8IXB1)
T5 construct: endogenous in cells; host or cells: HeLa cell extract
T5 sequence (Q8IXB1 33-793): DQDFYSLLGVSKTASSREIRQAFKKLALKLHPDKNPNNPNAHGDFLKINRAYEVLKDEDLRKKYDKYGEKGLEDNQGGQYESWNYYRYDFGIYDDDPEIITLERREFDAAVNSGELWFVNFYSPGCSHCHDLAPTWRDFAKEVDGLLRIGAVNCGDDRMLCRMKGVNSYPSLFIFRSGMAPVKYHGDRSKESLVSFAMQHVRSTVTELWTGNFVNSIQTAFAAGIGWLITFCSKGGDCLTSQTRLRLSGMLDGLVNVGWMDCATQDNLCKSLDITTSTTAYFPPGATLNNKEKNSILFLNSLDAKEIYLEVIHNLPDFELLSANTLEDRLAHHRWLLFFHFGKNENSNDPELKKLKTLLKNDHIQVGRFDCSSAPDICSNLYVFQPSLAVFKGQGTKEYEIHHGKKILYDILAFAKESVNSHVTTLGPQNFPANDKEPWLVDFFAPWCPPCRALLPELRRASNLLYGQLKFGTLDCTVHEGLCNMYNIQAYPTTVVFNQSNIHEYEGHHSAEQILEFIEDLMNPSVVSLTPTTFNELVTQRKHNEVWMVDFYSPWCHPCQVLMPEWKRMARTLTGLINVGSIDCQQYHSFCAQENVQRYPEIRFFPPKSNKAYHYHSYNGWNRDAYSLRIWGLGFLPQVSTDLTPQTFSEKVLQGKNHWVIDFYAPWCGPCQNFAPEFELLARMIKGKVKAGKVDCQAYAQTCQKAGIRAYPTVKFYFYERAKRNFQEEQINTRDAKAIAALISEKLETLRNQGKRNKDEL

[6] = target: T6, HeLa cell extract proteins (Homo sapiens, UniProt Q9BUJ2)
T6 construct: endogenous in cells; host or cells: HeLa cell extract
T6 sequence (Q9BUJ2 1-856): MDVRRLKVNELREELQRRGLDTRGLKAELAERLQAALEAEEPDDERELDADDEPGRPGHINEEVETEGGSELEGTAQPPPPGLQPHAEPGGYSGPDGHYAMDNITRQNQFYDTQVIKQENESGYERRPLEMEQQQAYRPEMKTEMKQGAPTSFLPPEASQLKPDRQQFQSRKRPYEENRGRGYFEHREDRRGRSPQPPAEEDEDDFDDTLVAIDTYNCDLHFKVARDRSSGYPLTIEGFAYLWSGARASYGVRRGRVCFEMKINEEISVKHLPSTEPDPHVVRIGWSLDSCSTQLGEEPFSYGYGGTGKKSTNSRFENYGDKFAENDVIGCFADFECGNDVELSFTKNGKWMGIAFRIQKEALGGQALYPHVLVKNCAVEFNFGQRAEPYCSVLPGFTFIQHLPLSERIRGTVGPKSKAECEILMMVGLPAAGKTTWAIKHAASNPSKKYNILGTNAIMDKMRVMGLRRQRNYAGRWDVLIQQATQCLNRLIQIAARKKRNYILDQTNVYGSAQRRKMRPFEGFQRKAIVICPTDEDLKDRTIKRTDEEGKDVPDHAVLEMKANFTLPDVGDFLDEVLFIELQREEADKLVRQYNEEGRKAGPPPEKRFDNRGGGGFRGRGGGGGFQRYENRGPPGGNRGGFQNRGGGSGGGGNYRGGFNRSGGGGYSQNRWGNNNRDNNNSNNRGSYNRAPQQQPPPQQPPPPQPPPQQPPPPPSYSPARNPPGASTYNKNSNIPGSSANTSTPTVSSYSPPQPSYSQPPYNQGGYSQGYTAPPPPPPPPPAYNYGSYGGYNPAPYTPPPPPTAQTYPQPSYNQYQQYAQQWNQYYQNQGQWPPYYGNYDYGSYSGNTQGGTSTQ

[7] = HeLa, captured protein HNRNPUL1
[8] = HeLa, protein SSB (LUPUS LA PROTEIN.)

For `Nc1nc2c(c(=O)[nH]1)N(C=O)C(CNc1ccc(C(=O)N[C@@H](CCC(=O)O)C(=O)O)cc1)CN2` (stereo partly drawn) [LEU, leucovorin], the “fold changes relative to vehicle control” value ([1]; HeLa, protein SSB) was 1.03, the “fold changes relative to vehicle control” value ([2]; HeLa, protein PFN2) was 1.07 and the “fold changes relative to vehicle control” value ([3]; HeLa, protein C1QBP) was 0.85. For the same compound, the “fold changes relative to vehicle control” value ([4]; HeLa, captured protein JTV1) was 1.04, the “fold changes relative to vehicle control” value ([5]; HeLa, protein DNAJC10) was 0.89 and the “fold changes relative to vehicle control” value [6, 7] was 0.99.
`Nc1nc2[nH]cc(CCc3ccc(C(=O)N[C@@H](CCC(=O)O)C(=O)O)cc3)c2c(=O)[nH]1` [PTX, pemetrexed] was tested, and the “fold changes relative to vehicle control” value [1] was 1.12, the “fold changes relative to vehicle control” value [2] was 1.01 and the “fold changes relative to vehicle control” value [3] was 0.92. For the same compound, the “fold changes relative to vehicle control” value [4] was 0.9, the “fold changes relative to vehicle control” value [5] was 0.91 and the “fold changes relative to vehicle control” value [6] was 1.04.
In the case of `CCCCCCOc1ccc(Cc2cnc(N)nc2N)cc1` [compound 1], the “fold changes relative to vehicle control” value [1, 8] was 1.38 fold, the “fold changes relative to vehicle control” value ([2]; protein PFN2, HeLa) was 1.23 and the “fold changes relative to vehicle control” value ([3]; protein C1QBP, HeLa) was 1.12. The “fold changes relative to vehicle control” value ([4]; captured protein JTV1, HeLa) was 1.04, the “fold changes relative to vehicle control” value ([5]; HeLa, protein DNAJC10) was 0.89 and the “fold changes relative to vehicle control” value ([6]; protein HNRNPUL1, HeLa) was 0.83.
In the case of `CCCCCCOc1cccc(Cc2cnc(N)nc2N)c1` [compound 2], the “fold changes relative to vehicle control” value [1, 8] was 2.04 fold, the “fold changes relative to vehicle control” value ([2]; protein PFN2, HeLa) was 0.99 and the “fold changes relative to vehicle control” value ([3]; protein C1QBP, HeLa) was 1.27. The “fold changes relative to vehicle control” value ([4]; captured protein JTV1, HeLa) was 1.16, the “fold changes relative to vehicle control” value ([5]; HeLa, protein DNAJC10) was 0.85 and the “fold changes relative to vehicle control” value ([6]; protein HNRNPUL1, HeLa) was 0.86.
In the case of `Nc1nc2cccc(-c3ccccc3)c2n1Cc1ccc(Cl)c(Cl)c1` [compound 3], the “fold changes relative to vehicle control” value [1, 8] was 1.01 fold, the “fold changes relative to vehicle control” value ([2]; protein PFN2, HeLa) was 1.1 and the “fold changes relative to vehicle control” value ([3]; protein C1QBP, HeLa) was 1. For the same compound, the “fold changes relative to vehicle control” value ([4]; captured protein JTV1, HeLa) was 0.89, the “fold changes relative to vehicle control” value ([5]; HeLa, protein DNAJC10) was 1.04 and the “fold changes relative to vehicle control” value ([6]; protein HNRNPUL1, HeLa) was 0.89.
For `NCCOCCOCC(=O)Nc1nc2ncc(CNc3ccc(C(=O)NC(CCC(=O)O)C(=O)O)cc3)nc2c(=O)[nH]1` (stereo not drawn) [compound 6], the “fold changes relative to vehicle control” value ([1]; HeLa, protein SSB) was 1.31, the “fold changes relative to vehicle control” value ([2]; HeLa, protein PFN2) was 1.06 and the “fold changes relative to vehicle control” value ([3]; HeLa, protein C1QBP) was 0.92. The “fold changes relative to vehicle control” value ([4]; HeLa, captured protein JTV1) was 0.89, the “fold changes relative to vehicle control” value ([5]; HeLa, protein DNAJC10) was 0.89 and the “fold changes relative to vehicle control” value [6, 7] was 1.05.
For `NCCCNc1ccc(C(=O)NC(CCC(=O)O)C(=O)O)cc1` (stereo not drawn) [compound 7], the “fold changes relative to vehicle control” value ([1]; HeLa, protein SSB) was 0.99, the “fold changes relative to vehicle control” value ([2]; HeLa, protein PFN2) was 1.15 and the “fold changes relative to vehicle control” value ([3]; HeLa, protein C1QBP) was 0.78. The “fold changes relative to vehicle control” value ([4]; HeLa, captured protein JTV1) was 0.85, the “fold changes relative to vehicle control” value ([5]; HeLa, protein DNAJC10) was 0.94 and the “fold changes relative to vehicle control” value [6, 7] was 1.07.
